Experimental data taken from the supplement of paper PMC5908809.

Experiments:
[1] = tested on: NK-YS (IL-2 2.5 ng/mL); experiment: percent inhibition of viability; higher = more inhibition; conditions: 72 h
[2] = tested on: SNK-6 (IL-2 2.5 ng/mL); experiment: as above; conditions: 72 h
[3] = tested on: normal primary NK cells, pool 1 (3 donors) (IL-2 2.5 ng/mL); experiment: as above; conditions: 72 h
[4] = tested on: DERL-7 (IL-2 2.5 ng/mL); experiment: as above; conditions: 72 h
[5] = tested on: KAI3 (IL-2 2.5 ng/mL); experiment: as above; conditions: 72 h
[6] = tested on: YT (IL-2 2.5 ng/mL); experiment: as above; conditions: 72 h
[7] = tested on: normal primary NK cells, pool 3 (3 donors) (IL-2 2.5 ng/mL); experiment: as above; conditions: 72 h
[8] = tested on: NKL (IL-2 2.5 ng/mL); experiment: as above; conditions: 72 h
[9] = tested on: KHYG-1 (IL-2 2.5 ng/mL); experiment: as above; conditions: 72 h
[10] = tested on: NK-92 (IL-2 2.5 ng/mL); experiment: as above; conditions: 72 h
[11] = tested on: normal primary NK cells, pool 2 (3 donors) (IL-2 2.5 ng/mL); experiment: as above; conditions: 72 h
[12] = tested on: normal primary NK cells, pool 1 (3 donors), resting (IL-2 0 ng/mL); experiment: as above; conditions: 72 h
[13] = tested on: IMC-1 (IL-2 20 ng/mL); experiment: as above; conditions: 72 h
[14] = tested on: normal NK cells expanded with K562-aAPC; experiment: as above; conditions: 72 h, IL-2 2.5 ng/mL
Protocol: (§1)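 Drug sensitivity and resistance testing on K562-aAPC-expanded normal NK cells: 5 concentrations (10-fold steps over a 10,000-fold range), 72 h at 37 °C, viability by CellTiter-Glo normalised to DMSO and benzethonium chloride controls; DSS from the fitted curve.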

[15] = tested on: normal NK cells expanded with K562-aAPC; experiment: drug sensitivity score (DSS) (DSS units); higher = more sensitive; extreme values may be limits of the assay; conditions: 72 h; IL-2 2.5 ng/mL
Protocol: as §1

[16] = tested on: NK-YS (IL-2 2.5 ng/mL); experiment: as above; conditions: 72 h
[17] = tested on: SNK-6 (IL-2 2.5 ng/mL); experiment: as above; conditions: 72 h
[18] = tested on: normal primary NK cells, pool 1 (3 donors) (IL-2 2.5 ng/mL); experiment: as above; conditions: 72 h
[19] = tested on: DERL-7 (IL-2 2.5 ng/mL); experiment: as above; conditions: 72 h
[20] = tested on: KAI3 (IL-2 2.5 ng/mL); experiment: as above; conditions: 72 h
[21] = tested on: YT (IL-2 2.5 ng/mL); experiment: as above; conditions: 72 h
[22] = tested on: normal primary NK cells, pool 3 (3 donors) (IL-2 2.5 ng/mL); experiment: as above; conditions: 72 h
[23] = tested on: NKL (IL-2 2.5 ng/mL); experiment: as above; conditions: 72 h
[24] = tested on: KHYG-1 (IL-2 2.5 ng/mL); experiment: as above; conditions: 72 h
[25] = tested on: NK-92 (IL-2 2.5 ng/mL); experiment: as above; conditions: 72 h
[26] = tested on: normal primary NK cells, pool 2 (3 donors) (IL-2 2.5 ng/mL); experiment: as above; conditions: 72 h
[27] = tested on: normal primary NK cells, pool 1 (3 donors), resting (IL-2 0 ng/mL); experiment: as above; conditions: 72 h
[28] = tested on: IMC-1 (IL-2 20 ng/mL); experiment: as above; conditions: 72 h

CC(C)Cn1cnc2c(N)nc3ccccc3c21 [Imiquimod] (max concentration tested 2500 nM)
percent inhibition of viability [%]
Conditions | 0.25 nM | 2.5 nM | 25 nM | 250 nM | 2500 nM
[1] | -0.76 | -2.23 | 5.71 | 6 | 16.1
[2] | 10.3 | -13.6 | 12.2 | 44 | 57.8
[3] | -14.4 | 5.91 | -7.15 | -9.14 | 5.82
[4] | -5 | 4.44 | -3.41 | 4.83 | -1.82
[5] | -2.07 | -8.41 | 6.25 | 5.37 | 17.9
[6] | -4.4 | -3 | 5.75 | 3.31 | 4.52
[7] | -14.7 | -9.92 | -6.17 | -5.82 | 6.93
[8] | -2.54 | -14.7 | -1.93 | 3.67 | 1.08
[9] | -3 | -3.08 | 2.45 | 6.32 | 13.8
[10] | -7.9 | -11.3 | -5.41 | 5.55 | 12.3
[11] | -8 | -6.73 | -8.32 | -4.68 | 20.8
[12] | -4.66 | 7.46 | -14.7 | -14.5 | -19.1
[13] | 2.11 | -3.32 | 4.26 | 10.8 | 22.2
[14] | -2.97 | -4.12 | -1.05 | 14.8 | 11.3

Conditions | drug sensitivity score
[15] | 1.27
[16] | 0.38
[17] | 9.47
[18] | 0
[19] | 0
[20] | 0.57
[21] | 0
[22] | 0
[23] | 0
[24] | 0.26
[25] | 0.3
[26] | 0.45
[27] | 0
[28] | 1.48

CN(C)C(=N)NC(=N)N [Metformin] (max concentration tested 100000 nM)
percent inhibition of viability [%]
Conditions | 10 nM | 100 nM | 1000 nM | 10000 nM | 100000 nM
[7] | -3.35 | 0.87 | 5.02 | 0.46 | 8.34
[11] | -3.45 | 0.32 | 10.6 | 8.75 | 12.4
[13] | -3.89 | -0.13 | -3.1 | -1.36 | 5.51
[14] | -6.08 | -6.07 | -1.23 | 6.39 | 2.64

Conditions | drug sensitivity score
[15] | 0
[22] | 0
[26] | 1.13
[28] | 0

CC(C)N(C[C@H]1O[C@@H](n2cnc3c(N)ncnc32)[C@H](O)[C@@H]1O)[C@H]1C[C@@H](CCc2nc3cc(C(C)(C)C)ccc3[nH]2)C1 [Pinometostat] (max concentration tested 1000 nM)
percent inhibition of viability [%]
Conditions | 0.1 nM | 1 nM | 10 nM | 100 nM | 1000 nM
[7] | -1.26 | 13 | 2.22 | 1.46 | -1.92
[11] | -6.45 | 6.92 | 6.49 | -0.47 | 0.82
[13] | -9.34 | -4.07 | -2.87 | -4.72 | 3.86
[14] | -0.7 | -1.47 | -2.36 | 3.36 | 12.5

Conditions | drug sensitivity score
[15] | 0.26
[22] | 0
[26] | 0
[28] | 0

COc1cc(Nc2ncc(F)c(Nc3ccc4c(n3)N(COP(=O)(O)O)C(=O)C(C)(C)O4)n2)cc(OC)c1OC [Fostamatinib] (max concentration tested 2500 nM)
percent inhibition of viability [%]
Conditions | 0.25 nM | 2.5 nM | 25 nM | 250 nM | 2500 nM
[7] | -14 | -12.5 | -10.8 | -5.58 | 4.31
[11] | -8.88 | -12.4 | -4.65 | -3.71 | 24.9
[13] | -2.94 | -0.51 | -4.59 | -3.53 | -9.62
[14] | -1.89 | -6.48 | -4.68 | -0.77 | 45.3

Conditions | drug sensitivity score
[15] | 2.26
[22] | 0
[26] | 0.74
[28] | 0.89

Cn1cc(C[C@@H](N)C(=O)O)c2ccccc21 [1-methyl-D-tryptophan] (max concentration tested 5000 nM)
percent inhibition of viability [%]
Conditions | 0.5 nM | 5 nM | 50 nM | 500 nM | 5000 nM
[7] | -7.11 | -12.2 | 0.9 | 5.49 | 5.66
[11] | -6.45 | -5.59 | -1.81 | 4.04 | 6.29
[13] | -6.61 | -9.96 | -5.67 | -2.82 | 0.08
[14] | -12.1 | -7.01 | -8.73 | 0.95 | 6.01

Conditions | drug sensitivity score
[15] | 0
[22] | 0
[26] | 0
[28] | 0

N[C@@H](Cc1ccc(N(CCCl)CCCl)cc1)C(=O)O [Melphalan] (max concentration tested 12500 nM)
percent inhibition of viability [%]
Conditions | 1.25 nM | 12.5 nM | 125 nM | 1250 nM | 12500 nM
[7] | -7.72 | -2.35 | -4.09 | 0.34 | 3.45
[11] | -5.43 | -5.03 | -6.41 | 7.99 | 1.1
[13] | -3.81 | -2.31 | -1.39 | 0.63 | 0.47
[14] | -1.69 | -2.91 | -0.58 | 0.8 | 6.31

Conditions | drug sensitivity score
[15] | 0
[22] | 0
[26] | 0
[28] | 0

CC(C)N(C[C@H]1O[C@@H](n2cnc3c(N)ncnc32)[C@H](O)[C@@H]1O)[C@H]1C[C@@H](CCc2nc3cc(C(C)(C)C)ccc3[nH]2)C1 [EPZ-5676] (max concentration tested 1000 nM)
percent inhibition of viability [%]
Conditions | [1] | [2] | [3] | [4] | [5] | [6] | [8] | [9] | [10] | [12]
0.1 nM | -3.52 | -2.4 | 2.06 | 0.43 | -1.4 | -1.48 | 0.4 | -0.41 | -12.3 | 9.51
1 nM | -3.4 | 4.63 | 11 | 5.23 | -5 | -5.01 | -6 | 1.41 | -21.5 | 20.3
10 nM | 2.56 | 8.19 | 9.38 | 1.69 | -1.28 | -2.34 | -2.76 | -1.91 | -14.1 | 21
100 nM | 4.51 | 3.31 | 13.4 | 4.27 | 5.24 | 7.03 | 18.4 | 7.32 | 5.88 | 20.5
1000 nM | 16.4 | 35.8 | 15.7 | -4.86 | 11.9 | 14.4 | 28.7 | 19.1 | 24.7 | 23.9

Conditions | drug sensitivity score
[16] | 0.65
[17] | 2.24
[18] | 1.75
[19] | 0
[20] | 0.23
[21] | 0.67
[23] | 3.3
[24] | 1.32
[25] | 1.76
[27] | 0

CC(C)NC[C@@H](C(=O)N1CCN(c2ncnc3c2[C@H](C)C[C@H]3O)CC1)c1ccc(Cl)cc1 [GDC-0068] (max concentration tested 10000 nM)
percent inhibition of viability [%]
Conditions | [1] | [2] | [3] | [4] | [5] | [6] | [8] | [9] | [10] | [12]
1 nM | 7.4 | -1.73 | 5.46 | -2.5 | 12.9 | 10.5 | 2.85 | 7.35 | 1.45 | 10.8
10 nM | 4.06 | -7.94 | -2.99 | 3.47 | 16.7 | 10.4 | 7.83 | 8.11 | -2.57 | 1.35
100 nM | 8.96 | 17.9 | 2.75 | -3.9 | 21.2 | 9.38 | 4.25 | 10.8 | 7.49 | 6.46
1000 nM | 7.83 | -5.92 | 4.21 | 40.2 | 10.2 | 5.43 | 3.13 | 8.62 | 1.85 | 4.26
10000 nM | 20.6 | 24.9 | 24.8 | 83.9 | 27.1 | 17.3 | 17.5 | 22.8 | 29 | 45.6

Conditions | drug sensitivity score
[16] | 1.05
[17] | 0.68
[18] | 1.57
[19] | 9.75
[20] | 0
[21] | 0
[23] | 0.78
[24] | 1.8
[25] | 1.5
[27] | 3.04

CC(C)NC[C@@H](C(=O)N1CCN(c2ncnc3c2[C@H](C)C[C@H]3O)CC1)c1ccc(Cl)cc1 [Ipatasertib] (max concentration tested 10000 nM)
percent inhibition of viability [%]
Conditions | 1 nM | 10 nM | 100 nM | 1000 nM | 10000 nM
[7] | 5.55 | 1.78 | 8.02 | 9.98 | 29.5
[11] | -8.24 | -4.37 | 0.07 | 8.84 | 36
[13] | 0.54 | 2.26 | 1.36 | 0.96 | 9.26
[14] | 4.44 | 5.94 | 6.06 | 17.9 | 39.6

Conditions | drug sensitivity score
[15] | 3.79
[22] | 2.08
[26] | 3.09
[28] | 0
